The values that follow come from the Deep4Chem optical property database.

Values joined by “and” are separate entries in the source; they are usually repeats but may differ in a detail not shown here. Identical values can stand only once.

The nature of this data set: solvent given as SMILES.
Where [1] appears, read: in c1cc(-c2cccc(-n3c4ccccc4c4ccccc43)c2)cc(-n2c3ccccc3c3ccccc32)c1.
Where [2] appears, read: in c1cc(-n2c3ccccc3c3ccccc32)cc(-n2c3ccccc3c3ccccc32)c1.
[3] abbreviates: in O=P(c1ccccc1)(c1ccccc1)c1ccccc1Oc1ccccc1P(=O)(c1ccccc1)c1ccccc1.

On to `COc1ccc2c3c(cccc13)C(=O)c1ccccc1-2`, for which the fluorescence lifetime reads like this: (in CC#N) 13.2 ns; (in CC(C)=O) 10.5 ns; (in CC(C)O) 12.7 ns; (in CCCCOCCCC) 0.6 ns; (in CCOC(C)=O) 4.1 ns; (in CCOCC) 0.9 ns. Also, the fluorescence lifetime is, setting by setting: (in CO) 12.6 ns; (in Cc1ccccc1) 1.4 ns; (in Clc1ccccc1) 6 ns; (in N#Cc1ccccc1) 14.1 ns; (in O=C1CCCCC1) 7.8 ns.

The compound `Cc1ccc2nc3[nH]c(=O)[nH]c(=O)c3nc2c1C` registered a fluorescence lifetime (in CC#N) of 2.41 ns.

For the compound `Cc1cc(C)c2c(c1)c1cc(C)cc(C)c1n2-c1ccc2c(c1)B(c1c(C(C)C)cc(C(C)C)cc1C(C)C)c1cc(-n3c4c(C)cc(C)cc4c4cc(C)cc(C)c43)ccc1N2c1ccccc1`, the fluorescence lifetime under setting [1] came to 9 ns.

With `CCCCCn1c2ccc(S(=O)(=O)O)cc2c(=O)c2cc(S(=O)(=O)O)ccc21`, the fluorescence lifetime by setting is: (in CS(C)=O) 10.2 ns; (in O) 15.6 ns.

As to `O=S(=O)(c1ccc(N2c3ccccc3Oc3ccccc32)cc1)c1ccc(N2c3ccccc3Oc3ccccc32)cc1`, the fluorescence lifetime is, setting by setting: (in C1COCCO1) 19 ns; (in CC(C)=O) 4.3 ns; (in Cc1ccccc1) 15 ns; (in ClC(Cl)Cl) 16 ns; under setting [2], 14 ns.

With `CN(C)c1ccc(/C=C/c2nc3c(ccc4ccccc43)s2)cc1`, the fluorescence lifetime reads like this: (in C1CCCCC1) 0.1 ns and 0.13 ns; (in CC#N) 0.1 ns and 0.13 ns.

As for `CC1(C)c2ccccc2N(c2ccccc2)c2ccc(-c3ccc(C(=O)c4ccc(-c5ccc6c(c5)C(C)(C)c5ccccc5N6c5ccccc5)cc4)cc3)cc21`, the fluorescence lifetime under setting [3] was found to be 1.87 ns.

As for `O=C1NC(=O)c2c1c1c3ccccc3[nH]c1c1[nH]c3ccccc3c21`, the fluorescence lifetime is 8.6 ns (in C1CCOC1); 10 ns (in CC#N); 7.3 ns (in CC(C)OC(C)C); 8 ns (in CCCCOCCCC); 7.7 ns (in CCO); 8.6 ns (in CCOC(C)=O). The compound further displayed a fluorescence lifetime (in CN(C)C=O) of 13 ns and a fluorescence lifetime (in ClCCl) of 7.1 ns.

Turning to `CCCCCCCCn1c(=O)c2cc3cc4cc5c(=O)n(CCCCCCCC)c(=O)c5cc4c(C#Cc4ccc(N(c5ccccc5)c5ccccc5)cc4)c3cc2c1=O`, under “in ClC(Cl)Cl”, the fluorescence lifetime worked out at 4.2 ns.

On to `N#Cc1ccc(C#Cc2ccccc2C#N)cc1`, for which the fluorescence lifetime (in ClC(Cl)Cl) is 2.64 ns.

Turning to `c1ccc(Cn2c3sccc3c3c4nsnc4c4c5ccsc5n(Cc5ccccc5)c4c32)cc1`, the fluorescence lifetime runs as follows: (in Cc1ccccc1) 13.5 ns; (in ClCCl) 16.2 ns.

As for `CCCCCCCc1ccc(C2=[N+]3C(=C4c5cc(OCC(CC)CC)c(-c6ccc(CCCCCCC)o6)n5[B-](F)(F)[n+]5nnn(c54)[B-]3(F)F)C=C2OCC(CC)CC)o1`, the fluorescence lifetime came out at 0.3 ns (in C1CCOC1) and 0.3 ns (in ClCCl).

With `N#Cc1cccc2ccccc12`, the fluorescence lifetime is 15.9 ns (in C1CCCCC1); 11 ns (in C1CCOC1); 17.7 ns (in CCCCCCC); 12.9 ns (in CCCCOC(C)=O); 12.8 ns (in CCCOC(C)=O); 11.9 ns (in CCOC(C)=O). For the same compound, the fluorescence lifetime by setting is: (in CCOCC) 13.7 ns; (in Cc1ccccc1) 12.8 ns.

With `CCN(CC)c1ccc2cc(C#N)/c(=N\C(=O)c3ccc(F)cc3)oc2c1`, the fluorescence lifetime (in CCO) was 3 ns and the fluorescence lifetime (in ClCCl) stood at 3.8 ns.

Turning to `CC1=[N+]2C(=C(c3ccc(N4CCOCC4)cc3)c3ccc(C)n3[B-]2(F)F)C=C1`, the fluorescence lifetime reads like this: (in C1CCCCC1) 2.15 ns; (in Cc1ccccc1) 3.12 ns.

Take `Oc1ccc2cc(C3(O)C4CC5CC(C4)CC3C5)ccc2c1` (stereo not given): the fluorescence lifetime (in CC#N) stood at 8.14 ns.

`COc1c2ccccc2c(OC)c2c1c1c(C)ccc(OC)c1n2C`: the fluorescence lifetime is, setting by setting: (in C1CCCCC1) 17.6 ns; (in CC#N) 24.2 ns; (in CO) 21.5 ns; (in ClCCl) 17.6 ns.

With `CCOC(=O)CCCCCn1c2ccccc2c(=O)c2cc(N)ccc21`, the fluorescence lifetime (in O) was 10.9 ns.

Take `COC(=O)C(NC(=O)OC(C)(C)C)c1ccc2oc(-c3ccc(OC(=O)c4ccccc4)cc3OC(=O)c3ccccc3)nc2c1` (stereo not given): the fluorescence lifetime reads like this: (in CC1CCCCC1) 0.358 ns; (in CC#N) 0.003 ns; (in CO) 0.01 ns.

Where the note is “in O”, `CCOC(=O)CCCCCn1c2ccc(N)cc2c(=O)c2cc(N)ccc21` registered a fluorescence lifetime of 11.5 ns.

Compound `CC1(C)c2ccccc2N(c2ccccc2)c2ccc(C(=O)c3ccc4c(c3)C(C)(C)c3ccccc3N4c3ccccc3)cc21` gave a fluorescence lifetime under setting [3] of 0.81 ns.

`F[B-]1(F)OC(c2cccc(Br)c2)=Cc2c3ccccc3c3ccccc3[n+]21`: the fluorescence lifetime (in ClC(Cl)Cl) amounted to 0.315 ns.

As to `CCCCCCCCCCN1C(=O)c2cc(NCCCOCCO)c3c4c(cc(NCCCOCCO)c(c24)C1=O)C(=O)N(CCCCCCCCCC)C3=O`, the fluorescence lifetime runs as follows: (in CO) 7.8 ns; (in ClC(Cl)Cl) 9.7 ns.

In turn, `CCn1c2ccccc2c2cc(C#Cc3cc(C#Cc4ccc5c(c4)c4ccccc4n5CC)nc(C#N)n3)ccc21` yielded a fluorescence lifetime (in C1CCOC1) of 4.26 ns.

Turning to `COc1ccc(-c2cc(C)nc(-c3ccc(-n4c5ccccc5c5ccccc54)cc3)n2)cc1`, the fluorescence lifetime reads like this: (in C1CCOC1) 2.56 ns; (in CN(C)C=O) 5.31 ns; (in Cc1ccccc1) 1.21 ns; (in ClC(Cl)Cl) 2.97 ns.

With `CCCCCCCC[n+]1ccc(-c2cc[n+](CCCCCCCC)cc2)cc1`, under “in CC#N”, the fluorescence lifetime was 1 ns.

For the compound `CN(C)c1ccc(C2=Nc3sc4ccccc4[n+]3[B-](F)(F)O2)cc1`, the fluorescence lifetime (in Cc1ccccc1) stood at 1.74 ns.

Compound `Cc1cc(-c2ccccc2)cc(C)[o+]1` gave a fluorescence lifetime (in CC#N) of 12.1 ns and a fluorescence lifetime (in ClCCl) of 0.78 ns.

`O=c1c2ccccc2n2c3ccccc3c(=O)c3cc(-c4ccccc4)cc1c32`: the fluorescence lifetime turned out to be 5.47 ns under setting [1] and 5.47 ns under setting [2].

As for `Cc1ccc(C(=O)NN2C3=C(CC4=C2CCCC4=O)C(=O)CCC3)cc1`, the fluorescence lifetime was determined as 4.1 ns (in C1CCOC1); 5.9 ns (in CC#N); 5.1 ns (in CC(C)=O); 5.9 ns (in CCCCCO); 4.6 ns (in CO); 7.9 ns (in ClC(Cl)Cl). Also, the fluorescence lifetime (in ClCCl) was 5.3 ns.

In the case of `COC(=O)C(NC(=O)OC(C)(C)C)c1ccc2oc(-c3ccc(F)cc3)nc2c1` (stereo not given), the fluorescence lifetime came out at 1.23 ns (in CC1CCCCC1), 1.47 ns (in CC#N) and 1.53 ns (in CO).

`COc1ccc2oc(=N)c(C#N)cc2c1` gave a fluorescence lifetime (in ClCCl) of 1.6 ns.

As for `CC(C)(C)c1ccc2cc3c4cccc5cccc(c6cc(C(C)(C)C)cc(c2c1)c63)c54`, under “in CC1CCCCC1”, the fluorescence lifetime was 3.6 ns.

For the compound `CC(C)n1c(=O)c2cc3ccc4cccc5ccc(c2c1=O)c3c45`, for the setting “in ClC(Cl)Cl”, the fluorescence lifetime is 5.16 ns.

The compound `CCCCOC(=O)c1cc(Cl)c2c3c(Cl)cc4c5c(cc(Cl)c(c6c(Oc7ccc(C(=O)OC)cc7)cc(C(=O)OCCCC)c1c26)c53)C(=O)N(c1c(C(C)C)cccc1C(C)C)C4=O` showed a fluorescence lifetime (in Cc1ccccc1) of 6.09 ns.

`CC[N+](CC)=c1ccc2c(-c3ccccc3C(=O)O)c3cc4c(-c5ccccc5C(=O)O)c5ccc(=[N+](CC)CC)cc-5oc4cc3oc-2c1` yielded a fluorescence lifetime (in ClC(Cl)Cl) of 0.72 ns.

For the compound `CN(C)c1ccc2cc3ccc(N(C)C)cc3nc2c1`, under “in O”, the fluorescence lifetime came to 2 ns.

`CC1(C)c2ccccc2N(c2ccc(-c3nc(C#N)c(C#N)nc3-c3ccc(N4c5ccccc5C(C)(C)c5ccccc54)cc3)cc2)c2ccccc21` gave a fluorescence lifetime under setting [1] of 30 ns.

For the setting “in ClC(Cl)Cl”, `Cc1cccc(C2=Cc3ccc4ccccc4[n+]3[B-](F)(F)O2)c1` showed a fluorescence lifetime of 1.58 ns.

For the compound `O=S(=O)(/N=c1\oc2cccc3c4c(-c5ccccc5)oc5cccc(c(c1-c1ccccc1)c23)c54)C(F)(F)F`, the fluorescence lifetime by setting is: (in CCCCCC) 3.8 ns; (in CO) 7.5 ns; (in CS(C)=O) 6.6 ns; (in ClC(Cl)Cl) 5.6 ns; (in ClCCl) 6.2 ns; (in O) 2.3 ns.

Take `CC(C)(C)c1ccc(-n2c(-c3ccc(N(c4ccc(-c5ccc(N(c6ccc(-c7nc8c9ccccc9c9ccccc9c8n7-c7ccc(C(C)(C)C)cc7)cc6)c6ccc(-c7nc8c9ccccc9c9ccccc9c8n7-c7ccc(C(C)(C)C)cc7)cc6)cc5)cc4)c4ccc(-c5nc6c7ccccc7c7ccccc7c6n5-c5ccc(C(C)(C)C)cc5)cc4)cc3)nc3c4ccccc4c4ccccc4c32)cc1`: where the note is “in ClCCl”, the fluorescence lifetime came to 3.8 ns.

Compound `CCC1(CC)c2ccccc2-c2c1c1c(c3c2C(CC)(CC)c2cc(B(c4c(C)cc(C)cc4C)c4c(C)cc(C)cc4C)ccc2-3)C(CC)(CC)c2cc(B(c3c(C)cc(C)cc3C)c3c(C)cc(C)cc3C)ccc2-1` displayed a fluorescence lifetime (in C1CCOC1) of 4.2 ns.

Compound `F[B-]1(F)OC(c2ccccc2)=Cc2cc(Cl)nc[n+]21` gave a fluorescence lifetime (in Cc1ccccc1) of 0.19 ns.

Turning to `NNC(=O)NNN1C(=O)c2cc(S(=O)(=O)[O-])cc3c(N)c(S(=O)(=O)[O-])cc(c23)C1=O`, the fluorescence lifetime by setting is: (in C1COCCO1) 3.4 ns; (in CC#N) 10.7 ns; (in CC(C)=O) 4.6 ns; (in CC(C)O) 9.6 ns; (in CCCCCCCCO) 8.8 ns; (in CCO) 9.2 ns. In addition, the fluorescence lifetime stood at 2.5 ns (in CCOC(C)=O); 9.5 ns (in CO); 10.7 ns (in CS(C)=O); 5.1 ns (in O); 7.9 ns (in OCCO); 6.3 ns (in c1ccncc1).

Regarding `N#Cc1cc(N2c3ccccc3Oc3ccccc32)c(N2c3ccccc3Oc3ccccc32)cc1C#N`, for the setting “in c1ccc2c(c1)c1ccccc1n2-c1ccc(-c2ccc(-n3c4ccccc4c4ccccc43)cc2)cc1”, the fluorescence lifetime turned out to be 20 ns.

For the setting “in Cc1ccccc1”, `c1ccc(N(c2ccccc2)c2c3ccccc3cc3ccccc23)cc1` came in with a fluorescence lifetime of 21 ns.
